Species: Rattus norvegicus
Assay: Open TG-GATES - Regimen: Daily Repeat
Assay type: toxicity, organism-based, Sprague-Dawley
Parameters: regimen Daily Repeat, gender Male, age 6 weeks
Details: in vivo, po, route gavage; for ALP / ALT / AST / BUN / CRE / DBIL / GLC / IP / K / LDH / Na / RALB / TBIL / TC / TG / TP / gamma-GTP: tissue Plasma; for Bas / Eos / Fbg / Lym / MCH / MCHC / MCV / Mono / Neu / PT / Plat / RBC / Ret / WBC: tissue Blood; for KIDNEY_L / KIDNEY_R / KIDNEY_TOTAL: tissue Kidney
[1] = 3 mg/kg, […], dose level Low, time 28 day
[2] = 10 mg/kg, 72 h, dose level Middle, time 3 day
[3] = 10 mg/kg, […], dose level Middle, time 7 day
[4] = 10 mg/kg, […], dose level Middle, time 14 day
[5] = 10 mg/kg, […], dose level Middle, time 28 day
[6] = 30 mg/kg, 72 h, dose level High, time 3 day
[7] = 30 mg/kg, […], dose level High, time 7 day
[8] = 30 mg/kg, […], dose level High, time 14 day

With `Cc1cnc(NC(=O)C2=C(O)c3ccccc3S(=O)(=O)N2C)s1` [MELOXICAM] the ALP [1] was 620 IU/L, the ALT [1] was 33.6 IU/L and the AST [1] was 64.4 IU/L. For the same compound, the BUN [1] was 18.2 mg/dL, the CRE [1] was 0.5 mg/dL and the DBIL [1] was 0.1 mg/dL. The GLC [1] was 235.2 mg/dL, the IP [1] was 7.2 mg/dL and the K [1] was 3.9 meq/L. For the same compound, the LDH [1] was 170.8 IU/L, the Na [1] was 142 meq/L and the RALB [1] was 3.5 g/dL. It also gave a TBIL [1] of 0.2 mg/dL, a TC [1] of 71.2 mg/dL and a TG [1] of 121.6 mg/dL. The TP [1] was 5.9 g/dL, the gamma-GTP [1] was 1.2 IU/L and the TERMINAL_BW [2] was 246.9 g. It also gave a Bas [2] of 0.8%, an Eos [2] of 0.6% and a Fbg [2] of 248.8 mg/dL. The Lym [2] was 71.4%, the MCH [2] was 21.7 pg and the MCHC [2] was 34.1%. The MCV [2] was 63.6 fL, the Mono [2] was 3.4% and the Neu [2] was 23.4%. For the same compound, the PT [2] was 11.7 s, the Plat [2] was 127 x10_4/uL and the RBC [2] was 635.2 x10_4/ul. It also gave a Ret [2] of 6%, a WBC [2] of 135.2 x10_2/uL and a KIDNEY_L [2] of 1.1 g. It also gave a KIDNEY_R [2] of 1.1 g, a KIDNEY_TOTAL [2] of 2.3 g and an ALP [2] of 919 IU/L. The ALT [2] was 43.2 IU/L, the AST [2] was 75.4 IU/L and the CRE [2] was 0.4 mg/dL. For the same compound, the DBIL [2] was 0.1 mg/dL, the IP [2] was 7.5 mg/dL and the K [2] was 4.1 meq/L. For the same compound, the LDH [2] was 242.6 IU/L, the Na [2] was 142.2 meq/L and the RALB [2] was 3.5 g/dL. It also gave a TBIL [2] of 0.2 mg/dL, a TC [2] of 79 mg/dL and a TG [2] of 129.2 mg/dL. For the same compound, the TP [2] was 5.7 g/dL, the gamma-GTP [2] was 1 IU/L and the TERMINAL_BW [3] was 277.9 g. It also gave a TERMINAL_BW [4] of 321.8 g, a TERMINAL_BW [5] of 398.2 g and a Bas [3] of 0.6%. For the same compound, the Eos [3] was 1%, the Fbg [3] was 223.8 mg/dL and the Lym [3] was 73.8%. It also gave an MCH [3] of 21.5 pg, an MCHC [3] of 34.5% and an MCV [3] of 62.2 fL. It also gave a Mono [3] of 2.8%, a Neu [3] of 21.8% and a PT [3] of 11.9 s. For the same compound, the RBC [3] was 633 x10_4/ul, the Ret [3] was 5.4% and the WBC [3] was 119.8 x10_2/uL. For the same compound, the Bas [4] was 1%, the Eos [4] was 0.8% and the Fbg [4] was 234.2 mg/dL. The Lym [4] was 74.2%, the MCH [4] was 20.3 pg and the MCHC [4] was 33.7%. It also gave an MCV [4] of 60 fL, a Mono [4] of 3% and a Neu [4] of 21.2%. It also gave a PT [4] of 11.6 s, a Plat [4] of 116.5 x10_4/uL and an RBC [4] of 699.4 x10_4/ul. It also gave a Ret [4] of 4.5%, a WBC [4] of 135.2 x10_2/uL and a Bas [5] of 1%. It also gave an Eos [5] of 1%, a Fbg [5] of 242.8 mg/dL and a Lym [5] of 73%. It also gave an MCH [5] of 19.4 pg, an MCHC [5] of 33.9% and an MCV [5] of 57.2 fL. It also gave a Mono [5] of 3.2%, a Neu [5] of 21.4% and a PT [5] of 11.5 s. The Plat [5] was 118.5 x10_4/uL, the RBC [5] was 740.6 x10_4/ul and the Ret [5] was 3.4%. It also gave a WBC [5] of 170.5 x10_2/uL, a KIDNEY_L [3] of 1.2 g and a KIDNEY_R [3] of 1.2 g. The KIDNEY_TOTAL [3] was 2.4 g, the KIDNEY_L [4] was 1.4 g and the KIDNEY_R [4] was 1.4 g. The KIDNEY_TOTAL [4] was 2.7 g, the KIDNEY_L [5] was 1.5 g and the KIDNEY_R [5] was 1.5 g. The KIDNEY_TOTAL [5] was 3 g, the ALP [3] was 952.8 IU/L and the ALT [3] was 34.2 IU/L. The AST [3] was 72.6 IU/L, the CRE [3] was 0.5 mg/dL and the DBIL [3] was 0.094 mg/dL. The IP [3] was 7.5 mg/dL, the K [3] was 4.2 meq/L and the LDH [3] was 197.8 IU/L. It also gave a Na [3] of 141.4 meq/L, an RALB [3] of 3.4 g/dL and a TBIL [3] of 0.2 mg/dL. The TC [3] was 68.4 mg/dL, the TG [3] was 96.4 mg/dL and the TP [3] was 5.6 g/dL. For the same compound, the gamma-GTP [3] was 3.4 IU/L, the ALP [4] was 873.6 IU/L and the ALT [4] was 38.6 IU/L. The AST [4] was 72.8 IU/L, the BUN [4] was 17.8 mg/dL and the CRE [4] was 0.4 mg/dL. For the same compound, the DBIL [4] was 0.1 mg/dL, the IP [4] was 7.2 mg/dL and the K [4] was 4 meq/L. The LDH [4] was 185.4 IU/L, the Na [4] was 142.6 meq/L and the RALB [4] was 3.5 g/dL. For the same compound, the TBIL [4] was 0.2 mg/dL, the TC [4] was 67.2 mg/dL and the TG [4] was 128.6 mg/dL. It also gave a TP [4] of 5.9 g/dL, a gamma-GTP [4] of 1 IU/L and an ALP [5] of 643.2 IU/L. The ALT [5] was 33.2 IU/L, the AST [5] was 66 IU/L and the BUN [5] was 17 mg/dL. The CRE [5] was 0.5 mg/dL, the DBIL [5] was 0.096 mg/dL and the GLC [5] was 244 mg/dL. It also gave an IP [5] of 7.3 mg/dL, a K [5] of 3.9 meq/L and an LDH [5] of 176.8 IU/L. It also gave a Na [5] of 141.8 meq/L, an RALB [5] of 3.2 g/dL and a TBIL [5] of 0.2 mg/dL. For the same compound, the TC [5] was 65.2 mg/dL, the TG [5] was 121.4 mg/dL and the TP [5] was 5.7 g/dL. It also gave a gamma-GTP [5] of 0.8 IU/L, a TERMINAL_BW [6] of 230.2 g and a Bas [6] of 0.6%. For the same compound, the Eos [6] was 0.4%, the Fbg [6] was 378.4 mg/dL and the Lym [6] was 66.6%. The MCH [6] was 21.2 pg, the MCHC [6] was 34.1% and the MCV [6] was 61.9 fL. It also gave a Mono [6] of 4.4%, a Neu [6] of 25.6% and a PT [6] of 11.6 s. The RBC [6] was 512.4 x10_4/ul, the Ret [6] was 7.1% and the WBC [6] was 150.3 x10_2/uL. It also gave a KIDNEY_L [6] of 1.2 g, a KIDNEY_R [6] of 1.2 g and a KIDNEY_TOTAL [6] of 2.5 g. For the same compound, the ALP [6] was 536 IU/L, the ALT [6] was 26 IU/L and the AST [6] was 52.4 IU/L. For the same compound, the BUN [6] was 17 mg/dL, the CRE [6] was 0.4 mg/dL and the DBIL [6] was 0.072 mg/dL. The IP [6] was 8.2 mg/dL, the K [6] was 4.1 meq/L and the LDH [6] was 165.8 IU/L. For the same compound, the Na [6] was 140.8 meq/L, the RALB [6] was 2.4 g/dL and the TBIL [6] was 0.1 mg/dL. It also gave a TC [6] of 71.6 mg/dL, a TG [6] of 110.4 mg/dL and a TP [6] of 4.9 g/dL. It also gave a gamma-GTP [6] of 1.2 IU/L, a TERMINAL_BW [7] of 231.5 g and a TERMINAL_BW [8] of 312.2 g. The Bas [7] was 0.6%, the Eos [7] was 0.6% and the Fbg [7] was 379.2 mg/dL. For the same compound, the Lym [7] was 55.6%, the MCH [7] was 20.6 pg and the MCHC [7] was 32.5%. For the same compound, the MCV [7] was 63.4 fL, the Mono [7] was 4.8% and the Neu [7] was 36.6%. For the same compound, the PT [7] was 12 s, the Plat [7] was 251.1 x10_4/uL and the RBC [7] was 387 x10_4/ul. It also gave a Ret [7] of 17.2%, a WBC [7] of 145.2 x10_2/uL and a Bas [8] of 1%. For the same compound, the Eos [8] was 0%, the Fbg [8] was 283.5 mg/dL and the Lym [8] was 62%. The MCH [8] was 20.8 pg, the MCHC [8] was 33% and the MCV [8] was 63 fL. For the same compound, the Mono [8] was 4%, the Neu [8] was 32% and the PT [8] was 11.5 s. It also gave a Plat [8] of 174 x10_4/uL, an RBC [8] of 636.5 x10_4/ul and a Ret [8] of 8.5%. For the same compound, the WBC [8] was 190.7 x10_2/uL, the KIDNEY_L [7] was 1.1 g and the KIDNEY_R [7] was 1.1 g. The KIDNEY_TOTAL [7] was 2.2 g, the KIDNEY_L [8] was 1.5 g and the KIDNEY_R [8] was 1.5 g. For the same compound, the KIDNEY_TOTAL [8] was 3 g, the ALP [7] was 1681.8 IU/L and the ALT [7] was 18 IU/L. For the same compound, the AST [7] was 74 IU/L, the BUN [7] was 53.4 mg/dL and the CRE [7] was 0.5 mg/dL. It also gave a DBIL [7] of 0.1 mg/dL, a GLC [7] of 153 mg/dL and an IP [7] of 9.7 mg/dL. It also gave a K [7] of 5.8 meq/L, an LDH [7] of 221.2 IU/L and a Na [7] of 136 meq/L. For the same compound, the RALB [7] was 2.1 g/dL, the TBIL [7] was 0.2 mg/dL and the TC [7] was 66 mg/dL. The TG [7] was 111.4 mg/dL, the TP [7] was 5.1 g/dL and the gamma-GTP [7] was 7.4 IU/L. It also gave an ALP [8] of 580.5 IU/L, an ALT [8] of 32.5 IU/L and an AST [8] of 67 IU/L. It also gave a BUN [8] of 16 mg/dL, a CRE [8] of 0.4 mg/dL and a DBIL [8] of 0.095 mg/dL. For the same compound, the IP [8] was 7.5 mg/dL, the K [8] was 4.2 meq/L and the LDH [8] was 145.5 IU/L. It also gave a Na [8] of 142 meq/L, an RALB [8] of 3 g/dL and a TBIL [8] of 0.2 mg/dL. It also gave a TC [8] of 70 mg/dL, a TG [8] of 139.5 mg/dL and a TP [8] of 5.5 g/dL. The gamma-GTP [8] was 1 IU/L.
